Test results reported in patent publication US20230279016A1, “Tetrahydropyrazolopyrimidines and Related Analogs for Inhibiting YAP/TAZ-TEAD” (THE KATHOLIEKE UNIVERSITEIT LEUVEN, priority 2021, published 2023).

Key:
Type in all cases: cell-based
[1] = system: YAP/TAZ-TEAD transcription; experiment: Reporter gene assay for measuring the inhibition of YAP/TAZ-TEAD transcription (TEAD-responsive element luciferase reporter in Hek293T cells); conditions: Hek293T cells transiently transfected with TEAD-responsive element luciferase reporter, 24 hours incubation
In short: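 Hek293T cells transiently transfected with TEAD-responsive luciferase reporter, exposed to compound for 24 h at 37° C/5% CO2, then read by luminescence. Percent inhibition normalized to vehicle (0%) and positive control inhibitor (100%); EC50 reported as activity ranges.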

[2] = system: NCI-H2052 mesothelioma cell line; experiment: Mesothelioma cell line proliferation assay, NCI-H2052; conditions: NCI-H2052, 6 days with compound, cell viability by ATPlite
Procedure: (§1) Mesothelioma cell lines, NCI-H226 and NCI-H2052 (all sourced from the ATCC cell culture collection) are plated in 96-well plates (Corning® 96 Well White Polystyrene Microplate clear flat bottom, white polystyrene (TC-Treated)), at 1500 cells/well in full medium (RPMI 1640 ATCC modification with L-glutamine, HEPES, Phenol Red, Sodium Pyruvate, High glucose, Low sodium bicarbonate and 10% fetal bovine serum). Cells are incubated overnight at 37° C. in an incubator with 5% CO2. Then compounds, dissolved in DMSO, are added in dose-response. Cells are incubated with compound dilutions for another 6 days at 37° C. in an incubator with 5% CO2. Cell viability is quantitated using the ATPlite kit (Perkin-Elmer) and the luminescence is read-out using an Envision instrument (Perkin-Elmer). The amount of relative light units produced using the ATPlite kit is used to calculated percent of inhibition.
(§2) The activities of example compounds tested are depicted in the table below. The activity ranges A, B and C refer to EC50 values in the mesothelioma cell line proliferation assay as described as follows: “A”: EC50 <1 μM; “B” : 1 μM EC50 ≤10 μM and “C” : EC50 >10 μM. NT: not tested.

[3] = system: NCI-H226 mesothelioma cell line; experiment: Mesothelioma cell line proliferation assay, NCI-H226; conditions: NCI-H226, 6 days with compound, cell viability by ATPlite
Procedure: as §1, §2

With C=CC(=O)NC[C@H]1Cc2nn(C(F)F)cc2N(c2ccc(C(F)(F)F)cc2)C1 (single isomer, unassigned) [Cpd. No. 085-En1, (R)- or (S)-N-(2-(difluoromethyl)-4-(4-(trifluoromethyl)phenyl)-4,5,6,7-tetrahydro-2H-pyrazolo[4,3-b]pyridin-6-yl)methyl)acrylamide] the EC50 [1] was less than 1000 nM, the EC50 [2] was less than 1000 nM and the EC50 [3] was less than 1000 nM.

C=CC(=O)NCC1CN(c2ccc(C(F)(F)F)cc2)c2cc(C3CC3)nn2C1 (stereo not drawn) [Cpd. No. 031, N-((2-cyclopropyl-4-(4-(trifluoromethyl)phenyl)-4,5,6,7-tetrahydropyrazolo[1,5-a]pyrimidin-6-yl)methyl)acrylamide] was tested, and the EC50 ([1]; Homo sapiens, HEK-293T, 24 h) was less than 1000 nM, the EC50 ([2]; Homo sapiens, NCI-H2052, 144 h) was less than 1000 nM and the EC50 ([3]; Homo sapiens, NCI-H226, 144 h) was less than 1000 nM.

C=CC(=O)N1CCC2(C1)CN(c1ccc(C(F)(F)F)cc1)c1ccnn1C2 (stereo not drawn) [Cpd. No. 088, 1-(4-(4-(trifluoromethyl)phenyl)-4,5-dihydro-7H-spiro[pyrazolo[1,5-a]pyrimidine-6,3′-pyrrolidin]-1′-yl)prop-2-en-1-one] showed an EC50 ([1]; Homo sapiens, HEK-293T, 24 h) of less than 1000 nM, an EC50 ([2]; Homo sapiens, NCI-H2052, 144 h) of less than 1000 nM and an EC50 ([3]; Homo sapiens, NCI-H226, 144 h) of less than 1000 nM.

Work on C=CC(=O)NCC1Cc2c(cnn2C(F)F)N(c2ccc(C(F)(F)F)cc2)C1 (single isomer, unassigned) [Cpd. No. 084-En1, (R)- or (S)-N-((1-(difluoromethyl)-4-(4-(trifluoromethyl)phenyl)-4,5,6,7-tetrahydro-1H-pyrazolo[4,3-b]pyridin-6-yl)methyl)acrylamide] yielded an EC50 ([1]; Homo sapiens, HEK-293T, 24 h) of less than 1000 nM, an EC50 ([2]; Homo sapiens, NCI-H2052, 144 h) of less than 1000 nM and an EC50 ([3]; Homo sapiens, NCI-H226, 144 h) of less than 1000 nM.

Compound C=CC(=O)NCC1CN(c2ccc(C(F)(F)F)cc2)c2c(Br)cnn2C1 (stereo not drawn) [Cpd. No. 058, N-((3-bromo-4-(4-(trifluoromethyl)phenyl)-4,5,6,7-tetrahydropyrazolo[1,5-a]pyrimidin-6-yl)-methyl)acrylamide] has an EC50 ([1]; Homo sapiens, HEK-293T, 24 h) of less than 1000 nM, an EC50 ([2]; Homo sapiens, NCI-H2052, 144 h) of 1000 to 10000 nM and an EC50 ([3]; Homo sapiens, NCI-H226, 144 h) of less than 1000 nM.

Compound C=CC(=O)NCC1CN(c2ccc(C(C)C)cc2)c2ccnn2C1 (single isomer, unassigned) [Cpd. No. 013-En1, (R)- or (S)-N-((4-(4-isopropylphenyl)-4,5,6,7-tetrahydropyrazolo[1,5-a]pyrimidin-6-yl)methyl)acrylamide] has an EC50 [1] of less than 1000 nM, an EC50 [2] of less than 1000 nM and an EC50 [3] of less than 1000 nM.

C=CC(=O)NCC1CN(c2ccc(C(F)(F)F)cc2)c2cc(C)nn2C1 (stereo not drawn) [Cpd. No. 029, N-((2-methyl-4-(4-(trifluoromethyl)phenyl)-4,5,6,7-tetrahydropyrazolo[1,5-a]pyrimidin-6-yl)methyl)acrylamide] was tested, and the EC50 ([1]; Homo sapiens, HEK-293T, 24 h) was less than 1000 nM, the EC50 ([2]; Homo sapiens, NCI-H2052, 144 h) was less than 1000 nM and the EC50 ([3]; Homo sapiens, NCI-H226, 144 h) was less than 1000 nM.

For C=C(F)C(=O)NCC1CN(c2ccc(C(F)(F)F)cc2)c2ccnn2C1 (stereo not drawn) [Cpd. No. 039, 2-fluoro-N-((4-(4-(trifluoromethyl)phenyl)-4,5,6,7-tetrahydropyrazolo[1,5-a]pyrimidin-6-yl)methyl)acrylamide], the EC50 ([1]; Homo sapiens, HEK-293T, 24 h) was less than 1000 nM, the EC50 ([2]; Homo sapiens, NCI-H2052, 144 h) was less than 1000 nM and the EC50 ([3]; Homo sapiens, NCI-H226, 144 h) was less than 1000 nM.

C=CC(=O)NCC1Cc2c(cnn2Cc2cccc(C(N)=O)c2)N(c2ccc(C(F)(F)F)cc2)C1 (stereo not drawn) [Cpd. No. 080, 3-((6-(acrylamido-methyl)-4-(4-(trifluoromethyl)phenyl)-4,5,6,7-tetrahydro-1H-pyrazolo[4,3-b]pyridin-1-yl)methyl)benzamide] was tested, and the EC50 ([1]; Homo sapiens, HEK-293T, 24 h) was less than 1000 nM, the EC50 ([2]; Homo sapiens, NCI-H2052, 144 h) was less than 1000 nM and the EC50 ([3]; Homo sapiens, NCI-H226, 144 h) was less than 1000 nM.

In the case of C=CC(=O)NCC1CN(c2ccc(C(C)C)cc2)c2ccnn2C1 (stereo not drawn) [Cpd. No. 013, N-((4-(4-isopropylphenyl)-4,5,6,7-tetrahydropyrazolo[1,5-a]pyrimidin-6-yl)methyl)acrylamide], the EC50 ([1]; Homo sapiens, HEK-293T, 24 h) is reported as less than 1000 nM, the EC50 ([2]; Homo sapiens, NCI-H2052, 144 h) is reported as less than 1000 nM and the EC50 ([3]; Homo sapiens, NCI-H226, 144 h) is reported as less than 1000 nM.

With C=CC(=O)NCC1CN(c2ccc(OC(F)(F)F)cc2F)c2ccnn2C1 (single isomer, unassigned) [Cpd. No. 019-En2, (R)- or (S)-N-((4-(2-fluoro-4-(trifluoromethoxy)phenyl)-4,5,6,7-tetrahydropyrazolo[1,5-a]pyrimidin-6-yl)methyl)acrylamide] the EC50 [1] was less than 1000 nM, the EC50 [2] was greater than 10000 nM and the EC50 [3] was less than 1000 nM.

C=C(C)C(=O)NCC1CN(c2ccc(C(F)(F)F)cc2)c2ccnn2C1 (stereo not drawn) [Cpd. No. 040, N-((4-(4-(trifluoromethyl)phenyl)-4,5,6,7-tetrahydropyrazolo[1,5-a]pyrimidin-6-yl)methyl)methacrylamide] was tested, and the EC50 ([1]; Homo sapiens, HEK-293T, 24 h) was less than 1000 nM, the EC50 ([2]; Homo sapiens, NCI-H2052, 144 h) was greater than 10000 nM and the EC50 ([3]; Homo sapiens, NCI-H226, 144 h) was less than 1000 nM.

In the case of C=CC(=O)NCC1Cc2nn(Cc3cccc(C(N)=O)c3)cc2N(c2ccc(C(F)(F)F)cc2)C1 (stereo not drawn) [Cpd. No. 081, 3-((6-(acrylamidomethyl)-4-(4-(trifluoromethyl)-phenyl)-4,5,6,7-tetrahydro-2H-pyrazolo[4,3-b]pyridin-2-yl)methyl)benzamide], the EC50 ([1]; Homo sapiens, HEK-293T, 24 h) is reported as less than 1000 nM, the EC50 ([2]; Homo sapiens, NCI-H2052, 144 h) is reported as less than 1000 nM and the EC50 ([3]; Homo sapiens, NCI-H226, 144 h) is reported as less than 1000 nM.

With C=CC(=O)NCC1CN(c2ccc(SC(F)(F)F)cc2)c2ccnn2C1 (single isomer, unassigned) [Cpd. No. 020-En1, (R)- or (S)-N-((4-(4-((trifluoromethyl)thio)phenyl)-4,5,6,7-tetrahydropyrazolo[1,5-a]pyrimidin-6-yl)methyl)acrylamide] the EC50 [1] was less than 1000 nM, the EC50 ([2]; Homo sapiens, NCI-H2052, 144 h) was less than 1000 nM and the EC50 [3] was less than 1000 nM.

C=CC(=O)NCC1CN(c2ccc(OC(F)(F)F)cc2)c2ccnn2C1 (single isomer, unassigned) [Cpd. No. 011-En1, (R)- or (S)-N-((4-(4-(trifluoromethoxy)phenyl)-4,5,6,7-tetrahydropyrazolo[1,5-a]pyrimidin-6-yl)methyl)acrylamide] showed an EC50 [1] of less than 1000 nM, an EC50 [2] of less than 1000 nM and an EC50 [3] of less than 1000 nM.

Compound C=CC(=O)NCC1Cc2c(cnn2C(F)F)N(c2ccc(C(F)(F)F)cc2)C1 (single isomer, unassigned) [Cpd. No. 084-En2, (R)- or (S)-N-((1-(difluoromethyl)-4-(4-(trifluoromethyl)phenyl)-4,5,6,7-tetrahydro-1H-pyrazolo[4,3-b]pyridin-6-yl)methyl)acrylamide] has an EC50 [1] of less than 1000 nM, an EC50 [2] of less than 1000 nM and an EC50 [3] of less than 1000 nM.

With C=CC(=O)NC1CN(c2ccc(C(F)(F)F)cc2)c2ccnn2C1 (stereo not drawn) [Cpd. No. 061, N-(4-(4-(trifluoromethyl)phenyl)-4,5,6,7-tetrahydropyrazolo[1,5-a]pyrimidin-6-yl)acrylamide] the EC50 ([1]; Homo sapiens, HEK-293T, 24 h) was less than 1000 nM, the EC50 ([2]; Homo sapiens, NCI-H2052, 144 h) was less than 1000 nM and the EC50 ([3]; Homo sapiens, NCI-H226, 144 h) was less than 1000 nM.

C=CC(=O)NCC1Cc2nn(C)cc2N(c2ccc(C(F)(F)F)cc2)C1 (stereo not drawn) [Cpd. No. 069, N-((2-methyl-4-(4-(trifluoromethyl)phenyl)-4,5,6,7-tetrahydro-2H-pyrazolo[4,3-b]pyridin-6-yl)methyl)acrylamide] was tested, and the EC50 ([1]; Homo sapiens, HEK-293T, 24 h) was less than 1000 nM, the EC50 ([2]; Homo sapiens, NCI-H2052, 144 h) was less than 1000 nM and the EC50 ([3]; Homo sapiens, NCI-H226, 144 h) was less than 1000 nM.

Compound C=CC(=O)NCC1CN(Cc2cccc(C(F)(F)F)c2)c2ccnn2C1 (stereo not drawn) [Cpd. No. 052, N-((4-(3-(trifluoro-methyl)benzyl)-4,5,6,7-tetrahydropyrazolo[1,5-a]pyrimidin-6-yl)methyl)acrylamide] has an EC50 ([1]; Homo sapiens, HEK-293T, 24 h) of less than 1000 nM, an EC50 ([2]; Homo sapiens, NCI-H2052, 144 h) of less than 1000 nM and an EC50 ([3]; Homo sapiens, NCI-H226, 144 h) of less than 1000 nM.

In the case of CS(=O)(=O)NCC1CN(c2ccc(C(F)(F)F)cc2)c2ccnn2C1 (stereo not drawn) [Cpd. No. 027, N-((4-(4-(trifluoromethyl)phenyl)-4,5,6,7-tetrahydropyrazolo[1,5-a]pyrimidin-6-yl)methyl)methanesulfonamide], the EC50 ([1]; Homo sapiens, HEK-293T, 24 h) is reported as greater than 20000 nM, the EC50 ([2]; Homo sapiens, NCI-H2052, 144 h) is reported as greater than 10000 nM and the EC50 ([3]; Homo sapiens, NCI-H226, 144 h) is reported as greater than 10000 nM.

With C=CC(=O)NCC1CN(c2ccc(C(F)(F)F)c(F)c2)c2ccnn2C1 (stereo not drawn) [Cpd. No. 015, N-((4-(3-fluoro-4-(trifluoromethyl)phenyl)-4,5,6,7-tetrahydropyrazolo[1,5-a]pyrimidin-6-yl)methyl)acrylamide] the EC50 ([1]; Homo sapiens, HEK-293T, 24 h) was less than 1000 nM, the EC50 ([2]; Homo sapiens, NCI-H2052, 144 h) was less than 1000 nM and the EC50 ([3]; Homo sapiens, NCI-H226, 144 h) was less than 1000 nM.

C=CC(=O)NCC1CN(c2ccc(C(F)(F)F)nc2)c2ccnn2C1 (stereo not drawn) [Cpd. No. 007, N-((4-(6-(trifluoromethyl)pyridin-3-yl)-4,5,6,7-tetrahydropyrazolo[1,5-a]pyrimidin-6-yl)methyl)acrylamide] gave an EC50 ([1]; Homo sapiens, HEK-293T, 24 h) of less than 1000 nM, an EC50 ([2]; Homo sapiens, NCI-H2052, 144 h) greater than 10000 nM and an EC50 ([3]; Homo sapiens, NCI-H226, 144 h) greater than 10000 nM.

In the case of C=CC(=O)NCC1CN(c2ccc(OC(F)F)cc2)c2ccnn2C1 (single isomer, unassigned) [Cpd. No. 012-En1, (R)- or (S)-N-((4-(4-(difluoromethoxy)phenyl)-4,5,6,7-tetrahydropyrazolo[1,5-a]pyrimidin-6-yl)methyl)acrylamide], the EC50 [1] is reported as less than 1000 nM, the EC50 [2] is reported as less than 1000 nM and the EC50 [3] is reported as less than 1000 nM.

With C=CC(=O)NCC1CN(c2ccc(C(F)(F)F)cc2)c2ccnn2C1 (stereo not drawn) [Cpd. No. 002, N-((4-(4-(trifluoromethyl)phenyl)-4,5,6,7-tetrahydropyrazolo[1,5-a]pyrimidin-6-yl)methyl)acrylamide] the EC50 ([1]; Homo sapiens, HEK-293T, 24 h) was less than 1000 nM, the EC50 ([2]; Homo sapiens, NCI-H2052, 144 h) was less than 1000 nM and the EC50 ([3]; Homo sapiens, NCI-H226, 144 h) was less than 1000 nM.
